Results from PMC3843727, “Isolation and Functional Characterization of Calcitonin-Like Diuretic Hormone Receptors in Rhodnius prolixus” (PLoS ONE, 2013).
Ends that are not written are not given here.

Experiments:
Malpighian tubules = conditions: reference stimulant; cited from earlier work
Rhopr-CT/DH-R1-C = assay: Bioluminescence (calcium mobilization) assay, HEK293/CNG cells expressing Rhopr-CT/DH-R1-C; type: cell-based, R. prolixus; conditions: luminescence
Description: (§1) The largest cDNA fragments encoding Rhopr-CT/DH-R1 transcript variants and Rhopr-CT/DH-R2-B were amplified as described earlier (see section: Isolation of cDNA sequences encoding R. prolixus CT/DH receptors). The PCR products from these reactions were used as a template to amplify the ORF and introduce a Kozak translation initiation sequence at the 5´ end using the primers listed in Table S5 in File S1. The resulting products were cloned into pGEM-T Easy vector (Promega, Madison, WI, USA). These were then subcloned into either pIRES2-ZsGreen1 (Clontech, Mountain View, CA, USA) or pcDNA 3.1^+ (Life Technologies Corporation, Carlsbad, CA, USA) for expression in mammalian cells.
(§2) Human embryonic kidney (HEK)-293 cells stably expressing a modified cyclic nucleotide-gated (CNG) channel (HEK293/CNG) (previously available through BD Biosciences, Mississauga, ON, Canada) were used to functionally characterize the receptors. […]
(§3) Bioluminescence assay using CHO/G16 cells was performed as described previously. […] Cells were loaded in each well using an automated injector and the luminescence recorded over 20 seconds using a Wallac Victor2 plate reader (Perkin Elmer, San Diego, CA, USA). […] Dose-response curves were obtained and the EC50 values determined using Prism5 software.

Rhopr-CT/DH-R1-B = assay: Bioluminescence (calcium mobilization) assay, HEK293/CNG cells expressing Rhopr-CT/DH-R1-B; type: cell-based, R. prolixus; conditions: luminescence
Description: as §1, §2, §3

Rhopr-CT/DH-R2-B = assay: Bioluminescence (calcium mobilization) assay, HEK293/CNG cells expressing Rhopr-CT/DH-R2-B; type: cell-based, R. prolixus; conditions: luminescence
Description: as §1, §2, §3

Compound	rate of fluid secretion by MTs (Malpighian tubules)	receptor activation (Rhopr-CT/DH-R1-C)	receptor activation (Rhopr-CT/DH-R1-B)	receptor activation (Rhopr-CT/DH-R2-B)
MQRPQGPSLSVANPIEVLRSRLLLEIARRRMKEQDASRVSKNRQYLQQI-NH2 [Rhopr-CRF/DH, R. prolixus corticotropin releasing-factor (CRF)-related diuretic hormone, custom synthesised by GenScript at > 95% purity]	maximum rate	None of these receptors were activated	None of these receptors were activated	None of these receptors were activated
NSELINSLLSLPKNMNDA-NH2 [Drome-PDF, D. melanogaster pigment dispersing factor, custom synthesized by GeneMed Synthesis at > 95% purity]	–	None of these receptors were activated	None of these receptors were activated	None of these receptors were activated
NCCc1c[nH]c2ccc(O)cc12 [serotonin]	maximum rate	–	–	–
